molecular target: KRAS G12C (Homo sapiens (Human), UniProt P01116, C118A/G12C); test: 2 h coupled exchange assay; type: biochemical; conditions: Avg 2 h Coupled exchange IC50, 2 h compound pre-incubation
Protocol: The term “2 h coupled exchange assay” or “20 h coupled exchange assay” as used herein refers to the assay described in the Section entitled “BIOLOGICAL EVALUATION.”

For `C=CC(=O)N1CC2(CCN(c3nc4cc(-c5ccnn5C)ccc4c(-c4c(O)cccc4Cl)c3C)C2)C1` [Example 16-5, 1-(6-(4-(2-chloro-6-hydroxyphenyl)-3-methyl-7-(1-methyl-1H-pyrazol-5-yl)-2-quinolinyl)-2,6-diazaspiro[3.4]octan-2-yl)-2-propen-1-one], which IC50 is on record?
The IC50 was 0.39 µM.

With `C=CC(=O)N1CC2(CCN(c3nc4cc(-c5ccnn5C)ccc4c(-c4cc(O)ccc4F)c3C)C2)C1` [Example 16-11, 1-(6-(4-(2-fluoro-5-hydroxyphenyl)-3-methyl-7-(1-methyl-1H-pyrazol-5-yl)-2-quinolinyl)-2,6-diazaspiro[3,4]octan-2-yl)-2-propen-1-one] as the molecule, how does the IC50 read?
Its IC50 is 0.347 µM.

How did the IC50 turn out when `C=CC(=O)N1CC2(CCN(c3nc4cc(-c5ccnn5C)ccc4c(-c4ccc(F)cc4)c3C)C2)C1` [Example 16-3, 1-(6-(4-(4-fluorophenyl)-3-methyl-7-(1-methyl-1H-pyrazol-5-yl)-2-quinolinyl)-2,6-diazaspiro[3.4]octan-2-yl)-2-propen-1-one] was run?
Its IC50 is 0.519 µM.

`C=CC(=O)N1CC2(CCN(c3nc4cc(-c5ccn[nH]5)ccc4c(-c4ccccc4Cl)c3C#N)C2)C1` [Example 17-8, 4-(2-chlorophenyl)-2-(2-(2-propenoyl)-2,6-diazaspiro[3.4]octan-6-yl)-7-(1H-pyrazol-3-yl)-3-quinolinecarbonitrile] was tested. Which IC50 did it give?
The IC50 was 0.571 µM.

For `C=CC(=O)N1CC2(CCN(c3nc4cc(-n5ccnc5C)ccc4c(-c4ccccc4Cl)c3C)[C@H]2C)C1` (single isomer, unassigned) [Example 15-5], which IC50 is on record?
Its IC50 is 0.779 µM.

Which IC50 does the source give for `C=CC(=O)N1CC2(CCN(c3nc4c(c(-c5cccc6cn[nH]c56)c3C#N)C[C@H]3C[C@@H]4C3(C)C)C2)C1` (single isomer, unassigned) [Example 14-28] here?
The IC50 was 0.886 µM.

With `C=CC(=O)N1CC2(CCN(c3nc4c(c(-c5cc(O)ccc5C)c3F)COC(C)(C)C4)C2)C1` (single isomer, unassigned) [Example 14-62, (P)-1-(6-(3-fluoro-4-(5-hydroxy-2-methylphenyl)-7,7-dimethyl-7,8-dihydro-5H-pyrano[4,3-b]pyridin-2-yl)-2,6-diazaspiro[3.4]octan-2-yl)-2-propen-1-one] as the molecule, how does the IC50 read?
Its IC50 is 0.696 µM.

For `C=CC(=O)N1CC2(CCN(c3nc4c(c(-c5c(C)ccc6cnn(C)c56)c3F)C[C@H]3C[C@@H]4C3(C)C)C2)C1` (single isomer, unassigned) [Example 14-64], which IC50 is on record?
The IC50 was 11.8 µM.

With `C=CC(=O)N1CC2(CCN(c3nc4c(c(-c5c(C)ccc6cnn(C(F)F)c56)c3C#N)COC(C)(C)C4)C2)C1` [Example 14-83, 4-(1-(difluoromethyl)-6-methyl-1H-indazol-7-yl)-7,7-dimethyl-2-(2-(2-propenoyl)-2,6-diazaspiro[3.4]octan-6-yl)-7,8-dihydro-5H-pyrano[4,3-b]pyridine-3-carbonitrile] as the molecule, how does the IC50 read?
Its IC50 is 0.432 µM.

same assay, conditions: Avg 2 h Coupled exchange IC50, 2 h compound pre-incubation, SOS-mediated nucleotide exchange

Which IC50 does the source give for `C=CC(=O)N1CC2(CCN(c3nc4c(c(-c5ncc(Cl)c6ccccc56)c3C#N)COC(C)(C)C4)C2)C1` [Example 12-30, 4-(4-chloro-1-isoquinolinyl)-7,7-dimethyl-2-(2-(2-propenoyl)-2,6-diazaspiro[3.4]octan-6-yl)-7,8-dihydro-5H-pyrano[4,3-b]pyridine-3-carbonitrile] here?
Its IC50 is 0.438 µM.

How did the IC50 turn out when `C=CC(=O)N1CC2(CCN(c3nc4c(c(-c5cccc(F)c5O)c3C#N)C[C@H]3C[C@@H]4C3(C)C)C2)C1` (single isomer, unassigned) [Example 2-71] was run?
The IC50 was 20.3 µM.

For `C=CC(=O)N1CC2(CCN(c3nc4c(c(-c5c(O)ccc6ccccc56)c3C#N)COC(C)(C)C4)C2)C1` [Example 13-34, 4-(2-hydroxy-1-naphthalenyl)-7,7-dimethyl-2-(2-(2-propenoyl)-2,6-diazaspiro[3.4]octan-6-yl)-7,8-dihydro-5H-pyrano[4,3-b]pyridine-3-carbonitrile], which IC50 is on record?
Its IC50 is 0.946 µM.

Which IC50 does the source give for `C=CC(=O)N1CC2(CCN(c3nc4c(c(-c5c(F)cccc5[C@H](C)O)c3C#N)C[C@H]3C[C@@H]4C3(C)C)C2)C1` (single isomer, unassigned) [Example 12-36] here?
Its IC50 is 0.441 µM.

`C=CC(=O)N1CC2(CCN(c3nc4c(c(-c5c(C)ccc6cnn(C)c56)c3C#N)C[C@H]3C[C@@H]4C3)[C@H]2C)C1` (single isomer, unassigned) [Example 13-31] was tested. Which IC50 did it give?
The IC50 was 0.652 µM.

How did the IC50 turn out when `C=CC(=O)N1CC2(CCN(c3nc4c(c(-c5cc(O)c(F)c6ccccc56)c3C#N)CCC3CC43)C2)C1` [Example 13-72, (6aR,7aR)-4-(4-fluoro-3-hydroxy-1-naphthalenyl)-2-(2-(2-propenoyl)-2,6-diazaspiro[3.4]octan-6-yl)-6,6a,7,7a-tetrahydro-5H-cyclopropa[h]quinoline-3-carbonitrile|(6aS,7aS)-4-(4-fluoro-3-hydroxy-1-naphthalenyl)-2-(2-(2-propenoyl)-2,6-diazaspiro[3.4]octan-6-yl)-6,6a,7,7a-tetrahydro-5H-cyclopropa[h]quinoline-3-carbonitrile] was run?
Its IC50 is 0.564 µM.

For `C=CC(=O)N1CC2(CCN(c3nc4c(c(-c5c(C)c(Cl)cc6[nH]ncc56)c3Cl)COC(C)(C)C4)C2)C1` (single isomer, unassigned) [Example 2-108, (M)-1-(6-(3-chloro-4-(6-chloro-5-methyl-1H-indazol-4-yl)-7,7-dimethyl-7,8-dihydro-5H-pyrano[4,3-b]pyridin-2-yl)-2,6-diazaspiro[3.4]octan-2-yl)-2-propen-1-one], which IC50 is on record?
Its IC50 is 14.1 µM.

With `C=CC(=O)N1CC2(CCN(c3nc4c(c(-c5c(C)ccc6nonc56)c3C#N)C[C@H]3C[C@@H]4C3(C)C)C2)C1` [Example 12-26, (1R,9R)-10,10-dimethyl-6-(5-methyl-2,1,3-benzoxadiazol-4-yl)-4-(2-(2-propenoyl)-2,6-diazaspiro[3.4]octan-6-yl)-3-azatricyclo[7.1.1.0^2,7] undeca-2,4,6-triene-5-carbonitrile] as the molecule, how does the IC50 read?
The IC50 was 0.687 µM.

`C=CC(=O)N1CC2(CCN(c3nc4c(c(-c5c(C)ccc6[nH]ncc56)c3C#N)CC(C)(C)C4)[C@H]2C)C1` (atropisomer, axis not shown; (P)) [Example 13-53, (P)-6,6-dimethyl-4-(5-methyl-1H-indazol-4-yl)-2-((5S)-5-methyl-2-(2-propenoyl)-2,6-diazaspiro[3.4]octan-6-yl)-6,7-dihydro-5H-cyclopenta[b]pyridine-3-carbonitrile] was tested. Which IC50 did it give?
Its IC50 is 0.657 µM.

With `C=CC(=O)N1CC2(CCN(c3nc4c(c(-c5cc(O)cc6ncccc56)c3C#N)C[C@H]3C[C@@H]4C3(C)C)C2)C1` (single isomer, unassigned) [Example 2-47] as the molecule, how does the IC50 read?
The IC50 was 0.181 µM.

Which IC50 does the source give for `C=CC(=O)N1CC2(CCN(c3nc4c(c(-c5c(C)cccc5O)c3C#N)C[C@H]3C[C@@H]4C3)C2)C1` (single isomer, unassigned) [Example 13-40] here?
Its IC50 is 34.1 µM.

`C=CC(=O)N1CC2(CCN(c3nc4c(c(-c5scnc5C)c3C#N)CCC(c3ccnn3C)C4)C2)C1` [Example 13-27, (7S)-7-(1-methyl-1H-pyrazol-5-yl)-4-(4-methyl-1,3-thiazol-5-yl)-2-(2-(2-propenoyl)-2,6-diazaspiro[3.4]octan-6-yl)-5,6,7,8-tetrahydro-3-quinolinecarbonitrile|(7R)-7-(1-methyl-1H-pyrazol-5-yl)-4-(4-methyl-1,3-thiazol-5-yl)-2-(2-(2-propenoyl)-2,6-diazaspiro[3.4]octan-6-yl)-5,6,7,8-tetrahydro-3-quinolinecarbonitrile] was tested. Which IC50 did it give?
The IC50 was 0.231 µM.

For `C=CC(=O)N1CC2(CCN(c3nc4c(c(-c5c(C)c(Cl)cc6cnn(C)c56)c3Cl)COC(C)(C)C4)C2)C1` (single isomer, unassigned) [Example 2-91, (P)-1-(6-(3-chloro-4-(5-chloro-1,6-dimethyl-1H-indazol-7-yl)-7,7-dimethyl-7,8-dihydro-5H-pyrano[4,3-b]pyridin-2-yl)-2,6-diazaspiro[3.4]octan-2-yl)-2-propen-1-one], which IC50 is on record?
Its IC50 is 2.89 µM.

For `C=CC(=O)N1CC2(CCN(c3nc4cc(OC)cnc4c(-c4c(C)ccc5[nH]ncc45)c3C)C2)C1` [Example 2-51, 1-(6-(7-methoxy-3-methyl-4-(5-methyl-1H-indazol-4-yl)-1,5-naphthyridin-2-yl)-2,6-diazaspiro[3.4]octan-2-yl)-2-propen-1-one], which IC50 is on record?
Its IC50 is 0.267 µM.

With `C=CC(=O)N1CC2(CCN(c3nc4c(c(-c5c(C)cccc5O)c3C#N)C[C@H]3C[C@@H]4C3)C2)C1` (single isomer, unassigned) [Example 13-39] as the molecule, how does the IC50 read?
The IC50 was 0.639 µM.

Which IC50 does the source give for `C=CC(=O)N1CC2(CCN(c3nc4c(c(-c5cccc6cc(N)ccc56)c3C#N)COC(C)(C)C4)C2)C1` [Example 12-4, 4-(6-amino-1-naphthalenyl)-7,7-dimethyl-2-(2-(2-propenoyl)-2,6-diazaspiro[3.4]octan-6-yl)-7,8-dihydro-5H-pyrano[4,3-b]pyridine-3-carbonitrile] here?
Its IC50 is 0.818 µM.

Which IC50 does the source give for `C=CC(=O)N1CC2(CCN(c3cc4c(c(-c5c(C)ccc6cnn(C)c56)c3Cl)OCCC4)C2)C1` [Example 2-102, 1-(6-(7-chloro-8-(1,6-dimethyl-1H-indazol-7-yl)-3,4-dihydro-2H-chromen-6-yl)-2,6-diazaspiro[3.4]octan-2-yl)-2-propen-1-one] here?
The IC50 was 0.07 µM.

With `C=CC(=O)N1CC2(C1)CN(c1nc3c(c(-c4c(C)ccc5cnn(C)c45)c1C#N)COC(C)(C)C3)CC2(F)F` [Example 13-47, 2-(8,8-difluoro-2-(2-propenoyl)-2,6-diazaspiro[3.4]octan-6-yl)-4-(1,6-dimethyl-1H-indazol-7-yl)-7,7-dimethyl-7,8-dihydro-5H-pyrano[4,3-b]pyridine-3-carbonitrile] as the molecule, how does the IC50 read?
Its IC50 is 0.298 µM.

`C=CC(=O)N1CC2(CCN(c3nc4c(c(-c5cc(O)ccc5C)c3Cl)COC(C)(C)C4)C2)C1` (single isomer, unassigned) [Example 2-80, (M)-1-(6-(3-chloro-4-(5-hydroxy-2-methylphenyl)-7,7-dimethyl-7,8-dihydro-5H-pyrano[4,3-b]pyridin-2-yl)-2,6-diazaspiro[3.4]octan-2-yl)-2-propen-1-one] was tested. Which IC50 did it give?
The IC50 was 20.1 µM.

same assay, conditions: read-out: Avg 2 h Coupled exchange IC50, 2 h compound pre-incubation, SOS-mediated nucleotide exchange

With “(M)-1-(6-(4-(5-chloro-1-methyl-1H-indazol-7-yl)-3,7,7-trimethyl-7,8-dihydro-5H-pyrano[4,3-b]pyridin-2-yl)-2,6-diazaspiro[3.4]octan-2-yl)-2-propen-1-one [Example 2-33]” as the molecule, how does the IC50 read?
Its IC50 is 17.4 µM.

— patent publication US20240059703A1 (AMGEN INC., priority 2021, published 2024)
